Here are results for 18 compounds from ChEMBL document CHEMBL1795225, “Flavonoids as inhibitors of human CD38” (Bioorg Med Chem Lett, 2011).

pIC50: −log10 of the molar value.

This assay concerns the target T1, ADP-ribosyl cyclase/cyclic ADP-ribose hydrolase 1 (Homo sapiens, UniProt P28907).
T1 sequence (P28907 whole entry): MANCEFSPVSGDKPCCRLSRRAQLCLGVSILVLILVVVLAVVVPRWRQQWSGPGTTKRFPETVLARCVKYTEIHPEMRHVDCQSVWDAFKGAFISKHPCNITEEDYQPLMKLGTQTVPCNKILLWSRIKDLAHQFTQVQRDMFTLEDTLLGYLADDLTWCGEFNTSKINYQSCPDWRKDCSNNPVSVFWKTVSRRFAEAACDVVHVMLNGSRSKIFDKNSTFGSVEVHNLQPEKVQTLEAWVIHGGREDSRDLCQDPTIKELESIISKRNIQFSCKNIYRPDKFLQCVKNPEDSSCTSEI
The experiment in a line: Inhibition of human CD38 using 20 uM 1, N6-etheno NAD+ as substrate by continuous fluorimetric method.
As a reminder, the pIC50 is the IC50 on a negative log10 scale, so that one unit is a factor of ten. The low end stands for a large IC50, the high end for a small IC50. With `Oc1ccc(-c2[o+]c3cc(O)c(O)c(O)c3cc2O)cc1O`, the pIC50 is 4.85.

`Oc1cc(O)c2c(c1)OC(c1ccc(O)c(O)c1)C(O)C2` (racemic) [CATECHIN] showed a pIC50 of less than 4.00.

Compound `Oc1cc(O)c2cc(O)c(-c3ccc(O)c(O)c3)[o+]c2c1` [CYANIDIN] had a pIC50 of 4.66.

Take `Oc1cc(O)c2cc(O)c(-c3cc(O)c(O)c(O)c3)[o+]c2c1` [DELPHINIDIN]: the pIC50 was 4.84.

`COc1ccc(-c2ccc3c(O)cc(O)cc3[o+]2)cc1O` [DIOSMETINIDIN] had a pIC50 of 4.49.

For the compound `Oc1ccc2cc(O)c(-c3ccc(O)c(O)c3)[o+]c2c1` [FISETINIDIN], the pIC50 is 4.15.

Compound `OC[C@H]1O[C@@H](Oc2cc3c(O)cc(O)cc3[o+]c2-c2ccc(O)c(O)c2)[C@H](O)[C@@H](O)[C@@H]1O` [KUROMANIN] had a pIC50 of 5.20.

`Oc1cc(O)c2ccc(-c3ccc(O)c(O)c3)[o+]c2c1` [LUTEOLINIDIN] showed a pIC50 of 5.22. The pIC50 values of the last two compounds are within 0.2 log units of each other.

Compound `O=c1cc(-c2ccc(O)c(O)c2)oc2cc(O)cc(O)c12` [LUTEOLIN] had a pIC50 of 5.09.

`COc1cc(-c2[o+]c3cc(O)cc(O)c3cc2O)cc(OC)c1O` [MALVIDIN] showed a pIC50 of 4.77.

In turn, `O=c1c(O)c(-c2cc(O)c(O)c(O)c2)oc2cc(O)cc(O)c12` [MYRICETIN] gave a pIC50 of 4.61.

`Oc1ccc(-c2[o+]c3cc(O)cc(O)c3cc2O)cc1` [PELARGONIDIN]: the pIC50 is 4.79.

With `COc1cc(-c2[o+]c3cc(O)cc(O)c3cc2O)cc(O)c1O` [PETUNIDIN], the negative-log IC50 (pIC50) was 4.41.

`Oc1cc(O)cc(/C=C/c2ccc(O)c(O)c2)c1` [PICEATANNOL] gave a pIC50 of less than 4.00.

In turn, `O=c1c(O)c(-c2ccc(O)c(O)c2)oc2cc(O)c(O)c(O)c12` [QUERCETAGETIN] had a pIC50 of 4.31.

`O=c1c(O)c(-c2ccc(O)c(O)c2)oc2cc(O)cc(O)c12` [QUERCETIN] gave a pIC50 of 4.42.

In turn, `Oc1ccc(/C=C/c2cc(O)cc(O)c2)cc1` [RESVERATROL] showed a pIC50 of less than 4.00.

Consider `O=c1c(O)c(-c2cc(O)c(O)c(O)c2)oc2cc(O)ccc12` [ROBINETIN], for which the pIC50 is 4.42.
